ChEMBL document CHEMBL5291721, “A preclinical secondary pharmacology resource illuminates target-adverse drug reaction associations of marketed drugs” (Nat Commun, 2023)

Legend:
[1] = biological target: T1, Neuropeptide Y receptor type 1 (Homo sapiens, UniProt P25929)
T1 sequence (P25929 whole entry): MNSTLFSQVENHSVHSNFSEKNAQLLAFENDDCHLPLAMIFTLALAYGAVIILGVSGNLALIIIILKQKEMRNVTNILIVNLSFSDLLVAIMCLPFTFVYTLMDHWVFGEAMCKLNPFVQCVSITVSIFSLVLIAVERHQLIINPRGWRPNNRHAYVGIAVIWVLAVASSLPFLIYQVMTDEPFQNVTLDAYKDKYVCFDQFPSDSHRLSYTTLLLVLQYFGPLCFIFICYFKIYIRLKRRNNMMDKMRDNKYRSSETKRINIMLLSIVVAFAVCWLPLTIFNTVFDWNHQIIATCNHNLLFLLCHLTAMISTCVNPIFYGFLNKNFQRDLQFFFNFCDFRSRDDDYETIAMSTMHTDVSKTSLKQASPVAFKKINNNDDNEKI

[2] = biological target: Beta-2 adrenergic receptor (Homo sapiens, UniProt P07550); type: functional, cell-based
[3] = biological target: T2, 5-hydroxytryptamine receptor 1A (Homo sapiens, UniProt P08908); type: functional, cell-based
T2 sequence (P08908 whole entry): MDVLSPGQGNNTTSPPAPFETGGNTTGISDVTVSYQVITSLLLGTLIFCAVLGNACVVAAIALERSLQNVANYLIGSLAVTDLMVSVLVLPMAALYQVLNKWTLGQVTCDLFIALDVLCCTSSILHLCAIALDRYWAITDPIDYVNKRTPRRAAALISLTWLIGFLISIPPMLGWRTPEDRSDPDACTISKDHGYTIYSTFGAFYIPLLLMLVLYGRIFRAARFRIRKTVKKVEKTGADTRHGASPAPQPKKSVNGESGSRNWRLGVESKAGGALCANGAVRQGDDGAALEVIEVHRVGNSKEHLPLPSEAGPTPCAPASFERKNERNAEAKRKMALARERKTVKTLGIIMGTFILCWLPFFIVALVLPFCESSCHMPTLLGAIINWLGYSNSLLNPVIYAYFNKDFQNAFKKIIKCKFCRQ

Endothelin-1 receptor = biological target: T3, Endothelin-1 receptor (Homo sapiens, UniProt P25101)
T3 sequence (P25101 whole entry): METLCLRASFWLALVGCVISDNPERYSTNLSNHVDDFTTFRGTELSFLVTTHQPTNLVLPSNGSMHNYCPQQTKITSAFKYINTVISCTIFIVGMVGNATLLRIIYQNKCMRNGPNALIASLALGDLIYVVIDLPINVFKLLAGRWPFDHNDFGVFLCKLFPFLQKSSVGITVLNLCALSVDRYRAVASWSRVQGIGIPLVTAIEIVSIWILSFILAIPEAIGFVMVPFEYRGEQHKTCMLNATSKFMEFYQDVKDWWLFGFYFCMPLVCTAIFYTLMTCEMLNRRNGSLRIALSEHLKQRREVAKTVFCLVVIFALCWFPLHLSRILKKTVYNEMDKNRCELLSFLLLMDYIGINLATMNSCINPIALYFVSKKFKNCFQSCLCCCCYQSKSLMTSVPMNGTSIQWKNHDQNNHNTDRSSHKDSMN

Histamine H2 receptor = Histamine H2 receptor (Homo sapiens, UniProt P25021); type: functional, cell-based
[4] = biological target: T4, Alpha-1A adrenergic receptor (Homo sapiens, UniProt P35348); type: functional, cell-based
T4 sequence (P35348 whole entry): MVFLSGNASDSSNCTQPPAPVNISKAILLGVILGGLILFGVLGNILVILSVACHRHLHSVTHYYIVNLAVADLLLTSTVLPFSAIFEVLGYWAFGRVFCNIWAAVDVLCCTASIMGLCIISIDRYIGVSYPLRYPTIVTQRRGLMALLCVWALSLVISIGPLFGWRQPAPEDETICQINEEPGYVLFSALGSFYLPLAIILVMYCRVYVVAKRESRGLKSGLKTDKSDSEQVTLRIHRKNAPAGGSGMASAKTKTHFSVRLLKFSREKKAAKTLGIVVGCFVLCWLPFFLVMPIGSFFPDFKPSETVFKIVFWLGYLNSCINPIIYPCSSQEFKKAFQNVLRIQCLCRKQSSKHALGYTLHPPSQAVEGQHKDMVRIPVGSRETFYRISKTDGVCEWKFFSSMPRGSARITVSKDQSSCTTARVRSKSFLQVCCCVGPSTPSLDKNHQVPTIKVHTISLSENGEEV

Vasopressin V2 receptor = Vasopressin V2 receptor (Homo sapiens, UniProt P30518)
[5] = biological target: Beta-1 adrenergic receptor (Homo sapiens, UniProt P08588); type: functional
[6] = biological target: Voltage-dependent L-type calcium channel subunit alpha-1C (Rattus norvegicus, UniProt P22002); type: functional
D(3) dopamine receptor = D(3) dopamine receptor (Homo sapiens, UniProt P35462)
Acetylcholinesterase = Acetylcholinesterase (Homo sapiens, UniProt P22303); type: functional
[7] = biological target: Prostaglandin G/H synthase 1 (Homo sapiens, UniProt P23219); type: functional
Estrogen receptor = biological target: T5, Estrogen receptor (Homo sapiens, UniProt P03372)
T5 sequence (P03372 whole entry): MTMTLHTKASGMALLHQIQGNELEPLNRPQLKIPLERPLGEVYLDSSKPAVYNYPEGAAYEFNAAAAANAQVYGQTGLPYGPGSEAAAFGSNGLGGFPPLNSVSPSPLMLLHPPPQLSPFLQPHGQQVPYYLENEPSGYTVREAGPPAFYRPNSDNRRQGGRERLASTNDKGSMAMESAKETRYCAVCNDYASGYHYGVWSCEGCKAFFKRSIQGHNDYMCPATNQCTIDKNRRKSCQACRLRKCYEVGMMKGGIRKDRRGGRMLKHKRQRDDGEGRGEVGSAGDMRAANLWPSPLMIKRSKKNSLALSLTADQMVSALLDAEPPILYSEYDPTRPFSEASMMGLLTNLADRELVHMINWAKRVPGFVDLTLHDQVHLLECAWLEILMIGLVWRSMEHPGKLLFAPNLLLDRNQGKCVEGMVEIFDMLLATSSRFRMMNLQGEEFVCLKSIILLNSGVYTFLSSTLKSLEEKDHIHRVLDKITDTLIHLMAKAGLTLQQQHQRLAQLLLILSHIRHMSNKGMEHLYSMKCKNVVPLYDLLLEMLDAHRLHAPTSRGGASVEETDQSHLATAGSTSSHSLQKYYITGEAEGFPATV

[8] = biological target: 5-hydroxytryptamine receptor 2B (Homo sapiens, UniProt P41595); type: functional, cell-based
Note: assay procedure not described here.

Sequence of 5-hydroxytryptamine receptor 2B (P41595 whole entry): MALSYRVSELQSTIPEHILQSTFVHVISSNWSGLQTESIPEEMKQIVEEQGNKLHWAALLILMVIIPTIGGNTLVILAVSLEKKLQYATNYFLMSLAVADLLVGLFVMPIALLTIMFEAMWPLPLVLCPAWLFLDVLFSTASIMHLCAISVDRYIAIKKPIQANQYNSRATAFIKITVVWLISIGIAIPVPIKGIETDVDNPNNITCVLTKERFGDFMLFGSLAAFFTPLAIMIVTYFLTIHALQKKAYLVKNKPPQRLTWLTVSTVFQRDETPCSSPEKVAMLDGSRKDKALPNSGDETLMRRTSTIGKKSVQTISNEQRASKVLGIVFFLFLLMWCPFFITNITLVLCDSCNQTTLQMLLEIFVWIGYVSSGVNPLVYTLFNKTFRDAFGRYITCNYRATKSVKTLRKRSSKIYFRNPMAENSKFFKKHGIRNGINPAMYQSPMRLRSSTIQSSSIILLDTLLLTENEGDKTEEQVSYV
Sequence of Voltage-dependent L-type calcium channel subunit alpha-1C (P22002 whole entry): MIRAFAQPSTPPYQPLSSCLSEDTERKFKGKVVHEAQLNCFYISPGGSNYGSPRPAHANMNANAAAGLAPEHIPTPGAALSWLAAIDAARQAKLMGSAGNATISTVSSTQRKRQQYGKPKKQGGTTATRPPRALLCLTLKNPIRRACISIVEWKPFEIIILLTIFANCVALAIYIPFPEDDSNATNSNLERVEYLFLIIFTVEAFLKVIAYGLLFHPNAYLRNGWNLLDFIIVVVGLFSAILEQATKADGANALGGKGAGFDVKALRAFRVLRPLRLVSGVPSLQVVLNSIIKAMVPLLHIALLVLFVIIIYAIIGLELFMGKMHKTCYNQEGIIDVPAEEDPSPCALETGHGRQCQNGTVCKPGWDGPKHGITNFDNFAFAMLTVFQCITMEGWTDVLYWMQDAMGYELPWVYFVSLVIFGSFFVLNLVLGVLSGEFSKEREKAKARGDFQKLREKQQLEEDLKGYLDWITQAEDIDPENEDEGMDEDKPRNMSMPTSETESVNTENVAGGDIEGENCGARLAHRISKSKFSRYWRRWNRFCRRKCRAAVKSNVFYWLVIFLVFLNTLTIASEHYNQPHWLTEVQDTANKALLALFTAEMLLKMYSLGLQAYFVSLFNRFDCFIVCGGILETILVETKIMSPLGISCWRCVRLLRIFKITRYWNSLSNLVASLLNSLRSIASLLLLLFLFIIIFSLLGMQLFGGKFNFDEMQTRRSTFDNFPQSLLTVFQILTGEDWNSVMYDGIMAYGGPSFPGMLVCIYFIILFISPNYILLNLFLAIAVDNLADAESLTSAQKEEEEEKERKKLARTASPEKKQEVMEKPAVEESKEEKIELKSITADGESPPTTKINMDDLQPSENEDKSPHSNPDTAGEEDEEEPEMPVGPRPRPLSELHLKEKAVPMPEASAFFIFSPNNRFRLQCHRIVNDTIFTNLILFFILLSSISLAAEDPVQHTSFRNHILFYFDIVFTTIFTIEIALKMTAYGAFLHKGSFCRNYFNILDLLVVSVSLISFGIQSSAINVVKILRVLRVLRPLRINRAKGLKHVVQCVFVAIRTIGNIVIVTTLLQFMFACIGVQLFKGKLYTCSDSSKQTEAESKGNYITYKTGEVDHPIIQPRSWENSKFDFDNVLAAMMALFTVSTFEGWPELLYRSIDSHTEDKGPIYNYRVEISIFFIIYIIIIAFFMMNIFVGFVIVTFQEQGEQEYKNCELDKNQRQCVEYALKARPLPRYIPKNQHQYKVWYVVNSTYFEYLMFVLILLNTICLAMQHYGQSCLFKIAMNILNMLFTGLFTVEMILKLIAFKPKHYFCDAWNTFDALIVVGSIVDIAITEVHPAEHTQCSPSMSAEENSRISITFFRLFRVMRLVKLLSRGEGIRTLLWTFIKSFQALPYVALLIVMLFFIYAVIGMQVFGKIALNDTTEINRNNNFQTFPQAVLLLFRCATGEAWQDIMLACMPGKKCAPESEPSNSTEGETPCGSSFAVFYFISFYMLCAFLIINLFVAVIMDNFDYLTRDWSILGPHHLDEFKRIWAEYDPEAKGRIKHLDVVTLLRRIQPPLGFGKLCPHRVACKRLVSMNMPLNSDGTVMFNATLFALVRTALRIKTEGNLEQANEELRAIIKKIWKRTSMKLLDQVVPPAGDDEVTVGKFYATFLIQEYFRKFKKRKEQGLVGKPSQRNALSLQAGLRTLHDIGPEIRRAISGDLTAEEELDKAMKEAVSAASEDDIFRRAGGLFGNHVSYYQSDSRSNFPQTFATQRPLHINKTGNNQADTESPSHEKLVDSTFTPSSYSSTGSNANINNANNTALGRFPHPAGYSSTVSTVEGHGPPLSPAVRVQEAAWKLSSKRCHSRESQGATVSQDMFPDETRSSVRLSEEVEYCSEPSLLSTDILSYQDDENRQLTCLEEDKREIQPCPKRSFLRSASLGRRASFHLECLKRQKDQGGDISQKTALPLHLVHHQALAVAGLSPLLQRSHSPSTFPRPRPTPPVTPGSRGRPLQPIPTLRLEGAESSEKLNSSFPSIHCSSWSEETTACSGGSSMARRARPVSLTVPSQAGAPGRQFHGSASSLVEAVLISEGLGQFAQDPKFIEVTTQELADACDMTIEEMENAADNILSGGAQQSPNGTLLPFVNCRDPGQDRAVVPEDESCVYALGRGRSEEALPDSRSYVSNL
Sequence of Beta-1 adrenergic receptor (P08588 whole entry): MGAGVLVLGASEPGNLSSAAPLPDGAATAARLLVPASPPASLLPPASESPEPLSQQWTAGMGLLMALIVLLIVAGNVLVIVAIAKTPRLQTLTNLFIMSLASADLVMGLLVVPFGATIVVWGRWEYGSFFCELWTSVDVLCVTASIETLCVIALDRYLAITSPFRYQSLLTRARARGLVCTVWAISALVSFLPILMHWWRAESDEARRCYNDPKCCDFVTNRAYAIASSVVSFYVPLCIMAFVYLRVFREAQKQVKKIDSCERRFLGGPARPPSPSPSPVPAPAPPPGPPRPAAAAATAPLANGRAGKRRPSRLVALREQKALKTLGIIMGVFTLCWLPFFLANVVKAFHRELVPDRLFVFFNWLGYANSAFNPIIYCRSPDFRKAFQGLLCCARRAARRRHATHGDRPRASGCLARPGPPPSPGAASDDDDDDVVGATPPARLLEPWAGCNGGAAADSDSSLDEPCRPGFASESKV
Sequence of D(3) dopamine receptor (P35462 whole entry): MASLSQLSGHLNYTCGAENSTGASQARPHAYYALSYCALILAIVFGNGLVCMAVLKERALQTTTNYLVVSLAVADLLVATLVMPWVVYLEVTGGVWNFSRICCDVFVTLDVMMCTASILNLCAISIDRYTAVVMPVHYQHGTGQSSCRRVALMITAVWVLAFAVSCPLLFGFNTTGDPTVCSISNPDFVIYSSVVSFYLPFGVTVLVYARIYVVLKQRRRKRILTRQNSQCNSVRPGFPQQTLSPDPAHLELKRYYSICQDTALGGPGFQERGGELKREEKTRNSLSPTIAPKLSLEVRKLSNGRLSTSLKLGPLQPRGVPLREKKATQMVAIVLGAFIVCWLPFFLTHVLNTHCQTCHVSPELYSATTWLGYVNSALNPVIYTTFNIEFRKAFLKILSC
Sequence of Prostaglandin G/H synthase 1 (P23219 whole entry): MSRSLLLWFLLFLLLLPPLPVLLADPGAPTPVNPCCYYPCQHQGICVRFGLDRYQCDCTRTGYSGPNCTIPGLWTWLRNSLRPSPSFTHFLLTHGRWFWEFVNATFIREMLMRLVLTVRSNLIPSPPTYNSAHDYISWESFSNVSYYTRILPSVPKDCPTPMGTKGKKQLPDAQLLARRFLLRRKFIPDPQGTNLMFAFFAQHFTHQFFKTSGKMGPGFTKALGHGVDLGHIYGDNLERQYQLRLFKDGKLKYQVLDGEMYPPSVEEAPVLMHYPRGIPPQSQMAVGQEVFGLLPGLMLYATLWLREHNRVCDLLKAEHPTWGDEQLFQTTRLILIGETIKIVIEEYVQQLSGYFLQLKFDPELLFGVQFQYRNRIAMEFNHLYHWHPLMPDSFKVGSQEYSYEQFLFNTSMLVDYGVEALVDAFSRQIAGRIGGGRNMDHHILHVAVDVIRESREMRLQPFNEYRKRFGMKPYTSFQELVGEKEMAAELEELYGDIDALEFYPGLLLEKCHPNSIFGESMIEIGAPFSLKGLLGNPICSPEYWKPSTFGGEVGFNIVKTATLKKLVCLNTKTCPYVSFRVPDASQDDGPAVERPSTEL
Sequence of Vasopressin V2 receptor (P30518 whole entry): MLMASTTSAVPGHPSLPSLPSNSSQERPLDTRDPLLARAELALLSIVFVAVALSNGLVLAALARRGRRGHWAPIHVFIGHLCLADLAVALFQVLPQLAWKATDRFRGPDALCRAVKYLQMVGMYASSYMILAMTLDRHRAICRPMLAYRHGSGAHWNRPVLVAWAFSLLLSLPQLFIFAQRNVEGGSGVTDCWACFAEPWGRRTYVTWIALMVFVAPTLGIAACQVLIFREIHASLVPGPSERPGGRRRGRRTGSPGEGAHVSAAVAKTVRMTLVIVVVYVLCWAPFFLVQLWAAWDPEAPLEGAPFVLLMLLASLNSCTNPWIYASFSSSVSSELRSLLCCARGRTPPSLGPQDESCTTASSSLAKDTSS
Sequence of Beta-2 adrenergic receptor (P07550 whole entry): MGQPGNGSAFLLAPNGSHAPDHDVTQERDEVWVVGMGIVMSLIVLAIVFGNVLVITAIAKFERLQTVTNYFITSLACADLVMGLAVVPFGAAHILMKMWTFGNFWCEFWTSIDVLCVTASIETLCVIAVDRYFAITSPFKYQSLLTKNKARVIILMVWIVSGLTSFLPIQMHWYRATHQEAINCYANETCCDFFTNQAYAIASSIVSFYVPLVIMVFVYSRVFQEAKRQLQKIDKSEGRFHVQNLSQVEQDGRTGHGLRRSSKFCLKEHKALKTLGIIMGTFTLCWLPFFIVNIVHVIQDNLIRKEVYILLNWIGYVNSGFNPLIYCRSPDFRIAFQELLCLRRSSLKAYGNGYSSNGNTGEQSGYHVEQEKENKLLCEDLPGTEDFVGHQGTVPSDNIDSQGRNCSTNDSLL

SMILES | AC50 [1] | AC50 [2] | AC50 [3] | AC50 (Endothelin-1 receptor) | AC50 (Histamine H2 receptor) | AC50 [4] | AC50 (Vasopressin V2 receptor) | AC50 [5] | AC50 [6] | AC50 (D(3) dopamine receptor) | AC50 (Acetylcholinesterase) | AC50 [7] | AC50 (Estrogen receptor) | AC50 [8]
CO/N=C(\C(=O)N[C@@H]1C(=O)N2C(C(=O)[O-])=C(C[N+]3(C)CCCC3)CS[C@H]12)c1csc(N)n1 | > 30 µM | > 300 µM | > 300 µM | > 300 µM | > 30 µM | > 300 µM | > 30 µM | > 300 µM | > 30 µM | – | – | – | – | –
CCOC(=O)[C@H](CCc1ccccc1)N[C@@H](C)C(=O)N1CCC[C@H]1C(=O)O | > 30 µM | > 30 µM | > 10 µM | > 30 µM | > 10 µM | > 30 µM | > 30 µM | > 10 µM | > 10 µM | – | – | – | – | –
Nc1nc(N)c2nc(-c3ccccc3)c(N)nc2n1 | > 30 µM | > 30 µM | > 10 µM | > 30 µM | > 30 µM | > 30 µM | > 30 µM | > 30 µM | > 30 µM | > 30 µM | > 30 µM | > 30 µM | > 30 µM | > 30 µM
C[C@H]1O[C@H](O[C@H]2[C@H](O)[C@@H](O)[C@@H](O[C@H]3[C@H](O)[C@@H](O)C(O)O[C@@H]3CO)O[C@@H]2CO)[C@H](O)[C@@H](O)[C@@H]1N[C@H]1C=C(CO)[C@@H](O)[C@H](O)[C@H]1O (stereo partly specified) [ACARBOSE] | > 30 µM | > 30 µM | > 10 µM | > 30 µM | > 10 µM | > 30 µM | > 30 µM | > 30 µM | > 10 µM | > 30 µM | > 30 µM | > 30 µM | – | > 30 µM
CC(=O)c1ccc2c(c1)N(CCCN1CCN(CCO)CC1)c1ccccc1S2 [ACETOPHENAZINE] | – | > 30 µM | 0.007 µM | > 30 µM | – | 0.0045 µM | – | – | – | – | – | – | – | –
Oc1ncnc2[nH]ncc12 [ALLOPURINOL] | > 30 µM | > 30 µM | > 10 µM | > 30 µM | > 10 µM | > 30 µM | > 30 µM | > 10 µM | > 10 µM | > 30 µM | > 30 µM | > 30 µM | > 30 µM | > 30 µM
CN1CCCC(n2nc(Cc3ccc(Cl)cc3)c3ccccc3c2=O)CC1 (stereo unspecified) [AZELASTINE] | – | > 30 µM | > 30 µM | > 30 µM | – | 1.1 µM | – | 18 µM | – | – | – | – | – | –
CCC[C@@H]1C[C@@H](C(=O)N[C@@H]([C@H]2O[C@H](SC)[C@H](O)[C@@H](O)[C@H]2O)[C@H](C)Cl)N(C)C1 [CLINDAMYCIN] | > 30 µM | > 30 µM | > 10 µM | > 30 µM | > 10 µM | > 30 µM | > 30 µM | > 10 µM | > 10 µM | – | – | – | – | –
CC(=O)OCC(=O)[C@@]1(O)CC[C@H]2[C@@H]3CCC4=CC(=O)CC[C@]4(C)[C@H]3C(=O)C[C@@]21C [CORTISONE ACETATE] | – | > 30 µM | > 30 µM | – | > 30 µM | > 30 µM | – | – | – | – | – | – | > 30 µM | > 30 µM
COC(=O)[C@@H]1CC2=CC(=O)CC[C@]2(C)[C@@]23O[C@@H]2C[C@@]2(C)[C@@H](CC[C@@]24CCC(=O)O4)[C@H]13 [EPLERENONE] | > 30 µM | > 30 µM | > 30 µM | > 30 µM | > 10 µM | > 30 µM | > 30 µM | > 30 µM | > 10 µM | – | – | – | – | –
NC(N)=Nc1nc(CSCCC(N)=NS(N)(=O)=O)cs1 [FAMOTIDINE] | > 30 µM | > 30 µM | > 10 µM | > 30 µM | > 10 µM | > 30 µM | > 30 µM | > 10 µM | > 10 µM | – | – | – | – | –
CC(C)Cc1ccc(CC(=O)O)cc1 [IBUFENAC] | – | > 30 µM | > 30 µM | > 30 µM | – | > 30 µM | – | > 30 µM | – | – | – | – | – | –
CC(C)NNC(=O)c1ccncc1 [IPRONIAZID] | – | > 30 µM | > 30 µM | > 30 µM | – | > 30 µM | – | > 30 µM | – | – | – | – | – | –
CCN(CC)CCNC(=O)c1cc(Cl)c(N)cc1OC [METOCLOPRAMIDE] | > 30 µM | > 30 µM | > 10 µM | > 30 µM | > 10 µM | > 30 µM | > 30 µM | > 10 µM | > 10 µM | – | – | – | – | –
Cc1cccc(C)c1OCC(C)N (stereo unspecified) [MEXILETINE] | > 30 µM | > 30 µM | – | > 30 µM | > 30 µM | > 30 µM | > 30 µM | > 30 µM | – | – | – | – | – | –
NC(=O)c1ncn([C@@H]2O[C@H](CO)[C@@H](O)[C@H]2O)c1O [MIZORIBINE] | > 30 µM | > 30 µM | > 30 µM | > 30 µM | > 30 µM | > 30 µM | > 30 µM | > 30 µM | – | – | – | – | – | –
CC[C@H](C)C(=O)O[C@H]1C[C@H](O)C=C2C=C[C@H](C)[C@H](CC[C@@H](O)C[C@@H](O)CC(=O)O)[C@H]21 [PRAVASTATIN] | – | > 30 µM | > 30 µM | > 30 µM | > 10 µM | > 30 µM | – | > 30 µM | > 10 µM | – | – | – | – | –
O=C(CCCCCCC(=O)Nc1ccccc1)NO [VORINOSTAT] | > 30 µM | > 30 µM | > 30 µM | > 30 µM | > 30 µM | > 30 µM | > 30 µM | > 30 µM | > 10 µM | – | – | – | – | –
